Assays:
[1] = molecular target: T1, RAC-alpha serine/threonine-protein kinase (Homo sapiens, UniProt P31749); assay: Inhibition of AKT1 in human U87 cells after 2 hrs by ELISA; format: cell-based, U-87MG ATCC
[2] = Inhibition of PKA
[3] = molecular target: T1, RAC-alpha serine/threonine-protein kinase; assay: Inhibition of AKT1
[4] = Antitumor activity against human myristoylated Akt1-activated rat Rat-1a cells xenografted mouse assessed as tumor growth inhibition at 50 mg/kg, qd, po for 10 days; format: functional; details: 240 h

T1 sequence (P31749 whole entry): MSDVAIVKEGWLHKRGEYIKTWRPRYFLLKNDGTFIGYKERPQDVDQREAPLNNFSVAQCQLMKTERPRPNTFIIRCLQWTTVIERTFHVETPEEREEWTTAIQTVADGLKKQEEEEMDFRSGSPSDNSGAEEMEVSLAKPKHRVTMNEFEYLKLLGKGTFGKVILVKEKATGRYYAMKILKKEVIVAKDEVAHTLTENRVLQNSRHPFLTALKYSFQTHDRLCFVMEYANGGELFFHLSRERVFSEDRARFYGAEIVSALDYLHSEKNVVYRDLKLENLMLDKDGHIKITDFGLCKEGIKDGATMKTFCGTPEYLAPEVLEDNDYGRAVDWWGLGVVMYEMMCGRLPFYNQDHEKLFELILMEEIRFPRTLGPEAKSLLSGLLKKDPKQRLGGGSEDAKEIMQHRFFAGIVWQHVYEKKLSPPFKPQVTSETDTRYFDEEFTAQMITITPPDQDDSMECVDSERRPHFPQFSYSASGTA

| IC50 [1] [nM] | IC50 [2] [nM] | IC50 [3] [nM] | SMILES | inhibition in vivo at 50 mg/kg [4] [%] |
| --- | --- | --- | --- | --- |
| 50 | 3.6 | 2.4 | N#Cc1c[nH]c2ncnc(N3CC4(CCNCC4)c4ccccc43)c12 | 68 |
| 122 | – | 4.8 | Cc1c[nH]c2ncnc(N3CC4(CCNCC4)c4ccccc43)c12 | – |
| 96 | – | 5.3 | c1ccc2c(c1)N(c1ncnc3[nH]ccc13)CC21CCNCC1 | – |
| – | – | 171 | Cc1nnc(-c2cc(Cl)ccc2Nc2ncnc3[nH]ccc23)[nH]1 | – |
| – | – | 318 | Clc1c[nH]c2ncnc(Nc3ccccc3-c3nnc[nH]3)c12 | – |
| – | – | 210 | c1ccc(-c2nnc[nH]2)c(Nc2ncnc3[nH]ccc23)c1 | – |
| – | – | > 10000 | Cn1ccc2c(Nc3ccccc3-c3nnc[nH]3)ncnc21 | – |
| 75 | – | 3.1 | Fc1ccc2c(c1)C1(CCNCC1)CN2c1ncnc2[nH]ccc12 | – |
| – | – | 294 | c1nc(N2CCc3nc[nH]c3C2)c2cc[nH]c2n1 | – |
| – | – | 425 | Cc1c[nH]c2ncnc(Nc3ccccc3-c3nnc[nH]3)c12 | – |
| – | – | 3190 | CS(=O)(=O)N1CCC2(CC1)CN(c1ncnc3[nH]ccc13)c1ccc(F)cc12 | – |
| – | – | 1330 | c1ccc(Cc2c[nH]c3ncnc(N4CC5(CCNCC5)c5ccccc54)c23)cc1 | – |
| 64 | – | 5.8 | Clc1c[nH]c2ncnc(N3CC4(CCNCC4)c4ccccc43)c12 | – |
| – | – | 2790 | CC(=O)N1CCC2(CC1)CN(c1ncnc3[nH]ccc13)c1ccc(F)cc12 | – |
| – | – | > 10000 | Cc1nnc(-c2ccc(Cl)cc2Nc2ncnc3[nH]ccc23)[nH]1 | – |
| 51 | – | 4.8 | Clc1ccc2c(c1)C1(CCNCC1)CN2c1ncnc2[nH]ccc12 | – |

| SMILES | IC50 [1] [nM] | IC50 [2] [nM] | IC50 [3] [nM] | inhibition in vivo at 50 mg/kg [4] [%] |
| --- | --- | --- | --- | --- |
| CN1CCC2(CC1)CN(c1ncnc3[nH]ccc13)c1ccccc12 | 136 | – | 12.7 | – |
